Laboratory results from publication PMC8467136, “Enabling Efficient Folding and High-Resolution Crystallographic Analysis of Bracelet Cyclotides” (Molecules, 2021).
Bridge positions count the residues as written; N and C are the ends. Peptide text beside a SMILES is read from it.

Assays:
[1] = test system: POPC/POPE (80:20) model membrane; assay: Membrane binding to POPC/POPE lipid bilayers by surface plasmon resonance (SPR); conditions: for P/L Max, peptide-to-lipid maximum binding value / Kd: BIAcore T200, L1 chip, POPC/POPE (80:20) bilayer, 10 mM HEPES, 150 mM NaCl; for P/L Max, peptide-to-lipid maximum binding value: pH 7.4, injection 180 s, dissociation 600 s, nonlinear regression; for Kd: pH 7.4, nonlinear regression, read-out: KD, peptide concentration required to achieve half-maximum binding at equilibrium
Excerpt: Cyclotides are reported to exert their biological activities via membrane binding, particularly by selective binding to lipids containing phosphatidylethanolamine (PE) headgroups. Therefore, to evaluate the functional impact of the single mutation on bracelet cyclotides, the membrane-binding ability of these variants towards PE-containing lipid bilayers was examined using surface plasmon resonance (SPR). The model membrane comprising 80% 1-palmitoyloleoyl-phosphatidylcholine (POPC) and 20% 1-palmitoyloleoyl-phosphatidylethanolamine (POPE) was used. Binding affinity was evaluated by the peptide-to-lipid maximum binding value (P/L max, mol/mol) and the peptide concentration required to achieve half-maximum binding at equilibrium (KD value, μM). […] The negative effect of the [I11G] bracelet cyclotide mutation on lipid binding was expected, as the mutation reduces surface hydrophobicity, a previously reported determinant of membrane binding. The SPR dose-response curves and sensorgrams are shown in Figure S4 in Supplementary Material.
The binding affinity of bracelet cyclotides and their variants toward lipid bilayers was studied using SPR, as described previously. Two synthetic lipids, 1-palmitoyl-2-oleoyl-glycero-3-phosphocholine (POPC) and 1-palmitoyl-2-oleoyl-sn-glycero-3-phosphoethanolamine (POPE), were purchased from Avanti Polar Lipids (USA). Briefly, homogenous, small, unilamellar vesicles composed of POPC/POPE (80:20, mol/mol) were obtained by extruding the vesicle suspension through a 50-nm pore size polycarbonate membrane. L1 sensor chips and BIAcore T200 instrument were used (Cytiva, Marlborough, MA, USA). After the lipid was loaded and formed a bilayer membrane on the L1 chip, peptide solutions were injected over the lipid surface for 180 s and the dissociation was monitored for 600 s. Peptides were tested at concentrations ranging from 4–32 μM. Peptide-to-lipid molar ratio and KD values were calculated by nonlinear regression using GraphPad Prism software (version 8.3.1). Peptide solutions and lipid vesicles were prepared in HEPES buffer (10 mM HEPES, 150 mM NaCl, pH 7.4, filtered) for SPR studies.

[2] = test system: HeLa cells; assay: Cytotoxicity against HeLa cells, resazurin assay; type: cell-based; conditions: 5000 cells/well, 24-h incubation with peptide, then resazurin 18 h, triplicate, mean ± SEM
Method: To further confirm the activity of these mutants, their cytotoxicity against HeLa cancer cells was evaluated along with wild-type bracelet cyclotides. […] Of the four [I11G] mutants, the hyen D analogue had the highest activity, possibly because hyen D has one more hydrophobic residue in loop 3 compared to the other three cyclotides, which may contribute to its higher lipid-binding capacity (P/L max = 0.37) and help offset the hydrophobicity loss caused by the [I11G] mutation.
The cytotoxicity of the peptides was evaluated using the resazurin assay, as described previously. HeLa cells were seeded at 5000 cells/well in a 96-well, flat-bottomed plate one day prior to the experiments. Peptide solutions were prepared in water and incubated with HeLa cells at concentrations ranging from 16 to 0.125 μM or 8 to 0.063 μM in triplicate (final concentrations). Water and 1% Triton X-100 (TX) were applied as negative and positive control, respectively. After 24-h incubation, 10 μL of resazurin (0.05%, w/v) was added and incubated with cells for another 18 h. The absorbance was measured at 540 and 620 nm on a microplate reader (Infinite M1000 Pro microplate reader, Tecan, Switzerland). The percentage of cell death was quantified by calculating the absorbance ratio, R (R = absorbance at 620/540), and applying the following equation: % Cell death = (Rsample − RH2O)/(RTX − RH2O) × 100. Data were analyzed with GraphPad Prism software (version 8.3.1) using Specific binding with Hill slope algorithm.

SMILES	P/L Max, peptide-to-lipid maximum binding value [1]	Kd [1]	Fold weaker affinity to membranes compared to parent peptide ([1]; POPC/POPE (80:20), compared with hyen D)	CC50 on HeLa (half maximum cytotoxic concentration) [2]
CC[C@H](C)[C@@H]1NC(=O)[C@H](C)NC(=O)[C@H](C)NC(=O)[C@H]([C@@H](C)O)NC(=O)[C@H](Cc2ccccc2)NC(=O)[C@@H]2CSSC[C@@H]3NC(=O)[C@H](C(C)C)NC(=O)[C@H](CCCCN)NC(=O)[C@H](CO)NC(=O)[C@H](CCCCN)NC(=O)[C@@H]4CSSC[C@H](NC(=O)[C@H](CO)NC(=O)[C@H](CCC(=O)O)NC(=O)CNC(=O)[C@H](CSSC[C@H](NC(=O)CNC1=O)C(=O)N[C@@H](CO)C(=O)N4)NC(=O)[C@@H]1CCCN1C(=O)[C@H](Cc1ccccc1)NC(=O)CNC(=O)[C@H](CC(N)=O)NC(=O)[C@H](CCCCN)NC(=O)[C@H](Cc1ccc(O)cc1)NC3=O)C(=O)N[C@@H](C(C)C)C(=O)N[C@@H](Cc1ccc(O)cc1)C(=O)NCC(=O)N1CCC[C@H]1C(=O)N2 [[I11G]hD] (cyclo(AAIGCSCKSKVCYKNGFPCGESCVYGPCFT); disulfide 5-19, 7-23, 12-28)	0.24 ± 0.01 mol/mol	81 ± 7.91 µM	18 fold	50.2 ± 4.61 µM
CC[C@H](C)[C@@H]1NC(=O)CNC(=O)[C@H](CC(N)=O)NC(=O)[C@H](CCCNC(=N)N)NC(=O)[C@H](Cc2ccc(O)cc2)NC(=O)[C@@H]2CSSC[C@@H]3NC(=O)[C@@H]4CCCN4C(=O)[C@H]([C@@H](C)CC)NC(=O)[C@H](Cc4c[nH]c5ccccc45)NC(=O)[C@H](C(C)C)NC(=O)[C@@H]4CSSC[C@H](NC(=O)[C@H](CO)NC(=O)[C@H](CSSC[C@H](NC(=O)[C@@H]5CCCN5C1=O)C(=O)NCC(=O)N[C@@H](CCC(=O)O)C(=O)N[C@@H](CO)C(=O)N4)NC(=O)CNC(=O)[C@H](C(C)C)NC(=O)[C@H](C)NC(=O)[C@H](CO)NC(=O)[C@H]([C@@H](C)O)NC(=O)[C@H](CC(C)C)NC3=O)C(=O)N[C@@H](CCCCN)C(=O)N[C@@H](CO)C(=O)N[C@@H](CCCCN)C(=O)N[C@@H](C(C)C)C(=O)N2 [cyO9, cycloviolacin O9, reference compound] (cyclo(AVGCSCKSKVCYRNGIPCGESCVWIPCLTS); disulfide 4-18, 6-22, 11-27)	0.30 ± 0.01 mol/mol	4.83 ± 0.17 µM	–	2.35 ± 0.13 µM
CC[C@H](C)[C@@H]1NC(=O)[C@@H]2CSSC[C@@H]3NC(=O)[C@H](C(C)C)NC(=O)[C@H](CCCCN)NC(=O)[C@H](CC(=O)O)NC(=O)[C@H]([C@@H](C)O)NC(=O)[C@@H]4CSSC[C@H](NC(=O)[C@H](CO)NC(=O)[C@H](CCC(=O)O)NC(=O)CNC(=O)[C@H](CSSC[C@H](NC(=O)CNC(=O)[C@H]([C@@H](C)CC)NC(=O)[C@H](C(C)C)NC(=O)CNC(=O)[C@H](CO)NC1=O)C(=O)N[C@@H](CO)C(=O)N4)NC(=O)[C@@H]1CCCN1C(=O)[C@H]([C@@H](C)O)NC(=O)CNC(=O)[C@H](CC(N)=O)NC(=O)[C@H](CC(C)C)NC(=O)[C@H](Cc1ccc(O)cc1)NC3=O)C(=O)N[C@@H](C(C)C)C(=O)N[C@@H](Cc1ccc(O)cc1)C(=O)N[C@@H]([C@@H](C)CC)C(=O)N1CCC[C@H]1C(=O)N2 [kB5, kalata B5, reference compound] (cyclo(CGESCVYIPCISGVIGCSCTDKVCYLNGTP); disulfide 1-17, 5-19, 10-24)	0.22 ± 0.00 mol/mol	5.02 ± 0.17 µM	–	3.11 ± 0.20 µM
CC[C@H](C)[C@@H]1NC(=O)CNC(=O)[C@H](CC(N)=O)NC(=O)[C@H](CCCNC(=N)N)NC(=O)[C@H](Cc2ccc(O)cc2)NC(=O)[C@@H]2CSSC[C@@H]3NC(=O)[C@@H]4CCCN4C(=O)[C@H](CC(C)C)NC(=O)[C@H](Cc4c[nH]c5ccccc45)NC(=O)[C@H](C(C)C)NC(=O)[C@@H]4CSSC[C@H](NC(=O)[C@H](CO)NC(=O)[C@H](CSSC[C@H](NC(=O)[C@@H]5CCCN5C1=O)C(=O)NCC(=O)N[C@@H](CCC(=O)O)C(=O)N[C@@H](CO)C(=O)N4)NC(=O)CNC(=O)[C@H](C(C)C)NC(=O)[C@H](C)NC(=O)[C@H](CO)NC(=O)[C@H]([C@@H](C)O)NC(=O)[C@H](CC(C)C)NC3=O)C(=O)N[C@@H](CCCCN)C(=O)N[C@@H](CO)C(=O)N[C@@H](CCCCN)C(=O)N[C@@H](C(C)C)C(=O)N2 [[I11L]cyO9] (cyclo(AVGCSCKSKVCYRNGIPCGESCVWLPCLTS); disulfide 4-18, 6-22, 11-27)	0.31 ± 0.00 mol/mol	4.26 ± 0.06 µM	–	1.06 ± 0.03 µM
CC[C@H](C)[C@@H]1NC(=O)[C@@H]2CSSC[C@@H]3NC(=O)[C@H](C(C)C)NC(=O)[C@H](CCCCN)NC(=O)[C@H](CC(=O)O)NC(=O)[C@H]([C@@H](C)O)NC(=O)[C@@H]4CSSC[C@H](NC(=O)[C@H](CO)NC(=O)[C@H](CCC(=O)O)NC(=O)CNC(=O)[C@H](CSSC[C@H](NC(=O)CNC(=O)[C@H]([C@@H](C)CC)NC(=O)[C@H](C(C)C)NC(=O)CNC(=O)[C@H](CO)NC1=O)C(=O)N[C@@H](CO)C(=O)N4)NC(=O)[C@@H]1CCCN1C(=O)[C@H]([C@@H](C)O)NC(=O)CNC(=O)[C@H](CC(N)=O)NC(=O)[C@H](CC(C)C)NC(=O)[C@H](Cc1ccc(O)cc1)NC3=O)C(=O)N[C@@H](C(C)C)C(=O)N[C@@H](Cc1ccc(O)cc1)C(=O)N[C@@H](CC(C)C)C(=O)N1CCC[C@H]1C(=O)N2 [[I11L]kB5] (cyclo(CGESCVYLPCISGVIGCSCTDKVCYLNGTP); disulfide 1-17, 5-19, 10-24)	0.22 ± 0.00 mol/mol	4.95 ± 0.12 µM	–	4.31 ± 0.48 µM
CC[C@H](C)[C@@H]1NC(=O)[C@H](C)NC(=O)[C@H](CO)NC(=O)[C@H](CO)NC(=O)[C@H]([C@@H](C)CC)NC(=O)[C@@H]2CSSC[C@@H]3NC(=O)[C@H](C(C)C)NC(=O)[C@H](CCCCN)NC(=O)[C@H](CO)NC(=O)[C@H](CCCCN)NC(=O)[C@@H]4CSSC[C@H](NC(=O)[C@H](CO)NC(=O)[C@H](CCC(=O)O)NC(=O)CNC(=O)[C@H](CSSC[C@H](NC(=O)CNC1=O)C(=O)N[C@@H](CO)C(=O)N4)NC(=O)[C@@H]1CCCN1C(=O)[C@H]([C@@H](C)CC)NC(=O)CNC(=O)[C@H](CC(N)=O)NC(=O)[C@H](CCCNC(=N)N)NC(=O)[C@H](Cc1ccc(O)cc1)NC3=O)C(=O)N[C@@H](C(C)C)C(=O)N[C@@H](Cc1c[nH]c3ccccc13)C(=O)N[C@@H]([C@@H](C)CC)C(=O)N1CCC[C@H]1C(=O)N2 [cyO2, cycloviolacin O2, reference compound] (cyclo(AIGCSCKSKVCYRNGIPCGESCVWIPCISS); disulfide 4-18, 6-22, 11-27)	0.28 ± 0.00 mol/mol	3.9 ± 0.11 µM	–	1.05 ± 0.06 µM
CC[C@H](C)[C@@H]1NC(=O)[C@H](C)NC(=O)[C@H](C)NC(=O)[C@H]([C@@H](C)O)NC(=O)[C@H](Cc2ccccc2)NC(=O)[C@@H]2CSSC[C@@H]3NC(=O)[C@H](C(C)C)NC(=O)[C@H](CCCCN)NC(=O)[C@H](CO)NC(=O)[C@H](CCCCN)NC(=O)[C@@H]4CSSC[C@H](NC(=O)[C@H](CO)NC(=O)[C@H](CCC(=O)O)NC(=O)CNC(=O)[C@H](CSSC[C@H](NC(=O)CNC1=O)C(=O)N[C@@H](CO)C(=O)N4)NC(=O)[C@@H]1CCCN1C(=O)[C@H](Cc1ccccc1)NC(=O)CNC(=O)[C@H](CC(N)=O)NC(=O)[C@H](CCCCN)NC(=O)[C@H](Cc1ccc(O)cc1)NC3=O)C(=O)N[C@@H](C(C)C)C(=O)N[C@@H](Cc1ccc(O)cc1)C(=O)N[C@@H](CC(C)C)C(=O)N1CCC[C@H]1C(=O)N2 [[I11L]hD] (cyclo(AAIGCSCKSKVCYKNGFPCGESCVYLPCFT); disulfide 5-19, 7-23, 12-28)	0.36 ± 0.01 mol/mol	4.39 ± 0.5 µM	–	0.70 ± 0.02 µM
